Results as given in patent publication US10059699B2, “Tetrahydroquinoline derivatives as bromodomain inhibitors” (GlaxoSmithKline Intellectual Property (No.2) Limited, priority 2014, dated 2018).
Marks after values point to notes of the source that are not given here.

Tested on: NMC11060 cells
Experiment: Mouse xenograft tumour assay (NMC)
Format: in vivo
Details: QD for 21 days, NOD/SCID mouse, day 21
Method: 1×10^7 NMC11060 cells, in 200 μl of 75% matrigel, were injected subcutaneously into each NOD/SCID mouse. Randomised oral administration of vehicle formulation, 1% Methycellulose (MC), or compound was initiated from the day tumour volume reached between 160-301 mm^3. Tumour volume was then measured every third day until either 21 days post inoculation or tumour volume had surpassed approximately 1000 mm^3.
Tumour growth inhibition=100−mean tumor volume of treatment group/mean tumour volume of control group×100. P values are derived from coefficient of variation analysis using software PASS 12, comparing vehicle against drug treated group. Based on day 21,* p<0.05, **p<0.01 and ***p<0.001

CC(=O)N1c2ccc(C(N)=O)cc2[C@H](Nc2ncc(Cl)cn2)C[C@@H]1C [Example 14, (2S,4R)-1-acetyl-4-((5-chloropyrimidin-2-yl)amino)-2-methyl-1,2,3,4-tetrahydroquinoline-6-carboxamide]
% TGI (10 mg/kg/day PO): 51* %
% TGI (30 mg/kg/day PO): 93*** %
